Laboratory results reported in US11000033B2, “Ketone or oxime compound, and herbicide” (NISSAN CHEMICAL CORPORATION, priority 2014, dated 2021).

What was measured:
Assay type in all cases: in vivo
[1] = system: Scirpus juncoides; assay: Test Example 1: herbicidal activity, application before weed generation in submerged conditions (symbol B); conditions: application herbicide amount 320 g/ha
Outline: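 Ratings (5: ≥90%, near complete withering; 4: 70–<90%; 3: 40–<70%; 2: 20–<40%; 1: 5–<20%; 0: ≤5%) were assigned 3 weeks after the diluted emulsion was applied to the water surface of freshly sown, submerged pots.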

[2] = system: Leptochloa chinensis; assay: Test Example 3: herbicidal effect by foliage application, Wagner pot (symbol D); conditions: application herbicide amount 320 g/ha
Outline: (§1)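 Seeds sown in alluvial soil kept under 0.1–0.5 cm water, greenhouse 25–30 °C; 14 d growth. Leaves treated by small sprayer with water-diluted emulsion at a predetermined rate. Effect graded by set scale, 3 weeks.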

[3] = system: Digitaria ciliaris; assay: Test Example 4: herbicidal effect by soil treatment (symbol F)
Outline: (§2)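 Seeds were sown in sterilized diluvial soil, covered with about 1.5 cm of soil, and the soil surface was sprayed with a water-diluted emulsion of the compound at a predetermined rate. Plants grew in a greenhouse at 25° C. to 30° C.; effects were scored visually 3 weeks after application.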

[4] = system: Echinochloa crus-galli var. crus-galli; assay: Test Example 4: herbicidal effect by soil treatment (symbol H)
Outline: as §2

[5] = system: Lolium multiflorum Lam.; assay: Test Example 4: herbicidal effect by soil treatment (symbol K)
Outline: as §2

[6] = system: Chenopodium album; assay: Test Example 4: herbicidal effect by soil treatment (symbol O)
Outline: as §2

[7] = system: rice; assay: Test Example 4: effect on crop by soil treatment (symbol b); conditions: for b: directly sowed rice plant, effect on crop grade: application herbicide amount 320 g/ha
Outline: (§3)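 Seeds were sown in spots on sterilized diluvial soil in a plastic box and covered with about 1.5 cm of soil. Plants were then grown in a greenhouse at 25° C. to 30° C.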

[8] = system: beet; assay: Test Example 4: effect on crop by soil treatment (symbol f); conditions: for f: beet, effect on crop grade: application herbicide amount 320 g/ha
Outline: as §3

[9] = system: Setaria viridis; assay: Test Example 5: herbicidal effect by foliage application, plastic box (symbol G); conditions: 320 g/ha, 3 weeks after application
Outline: (§4)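 Sowing in sterilized diluvial soil, 14 days' greenhouse growth at 25° C. to 30° C., then uniform small-sprayer foliar application of aqueous emulsion dilution; plants scored three weeks afterwards.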

[10] = system: Alopecurus myosuroides; assay: Test Example 5: herbicidal effect by foliage application, plastic box (symbol J); conditions: 320 g/ha, 3 weeks after application
Outline: as §4

[11] = system: Abutilon theophrasti; assay: Test Example 5: herbicidal effect by foliage application, plastic box (symbol M); conditions: 320 g/ha, 3 weeks after application
Outline: as §4

[12] = system: Chenopodium album; assay: Test Example 5: herbicidal effect by foliage application, plastic box (symbol O); conditions: 320 g/ha, 3 weeks after application
Outline: as §4

[13] = system: Stellaria media; assay: Test Example 5: herbicidal effect by foliage application, plastic box (symbol P); conditions: 320 g/ha, 3 weeks after application
Outline: as §4

[14] = system: Galium spurium; assay: Test Example 5: herbicidal effect by foliage application, plastic box (symbol Q); conditions: 320 g/ha, 3 weeks after application
Outline: as §4

[15] = system: Veronica persica; assay: Test Example 5: herbicidal effect by foliage application, plastic box (symbol R); conditions: 320 g/ha, 3 weeks after application
Outline: as §4

[16] = system: soybean; assay: Test Example 5: effect on crop by foliage application, plastic box (symbol d); conditions: 320 g/ha, 3 weeks after application
Outline: (§5)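 A greenhouse held between 25° C. and 30° C. was used to grow plants sown spot-wise, beneath ~1.5 cm of soil, in boxes of sterilized diluvial soil.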

[17] = system: rice plant; assay: Test Example 5: effect on crop by foliage application, plastic box (symbol b); conditions: 320 g/ha, 3 weeks after application
Outline: as §5

[18] = system: Cyperus difformis; assay: Test Example 3: herbicidal effect by foliage application, Wagner pot (symbol E); conditions: application herbicide amount 320 g/ha
Outline: as §1

[19] = system: Amaranthus retroflexus; assay: Test Example 4: herbicidal effect by soil treatment (symbol N); conditions: application herbicide amount 320 g/ha
Outline: as §2

[20] = application herbicide amount 320 g/ha

With `CON=C(C)CC1CC(OC(=O)N2CCCC2)=C(c2c(C)cc(C)cc2C)C1=O` (centres unmarked) [1-150] the “Herbicidal effect grade, B: Scirpus juncoides” value (“Herbicidal effect grade, B” for short) [1] was 3 (Herbicidal ratio of 40% or higher and lower than 70%), the “herbicidal effect on D (Leptochloa chinensis), grade 0-5” value (“herbicidal effect on D” for short) [2] was 4 (Herbicidal ratio of 70% or higher and lower than 90%) and the “F: Digitaria ciliaris, herbicidal effect grade” value (“F: Digitaria ciliaris” below) ([3]; 320 g/ha) was 5 (Herbicidal ratio of 90% or more (almost completely withered)). For the same compound, the “H: Echinochloa crus-galli var. crus-galli, herbicidal effect grade” value ([4]; 320 g/ha) was 0 (Herbicidal ratio of 5% or lower (almost no effect)), the “K: Lolium multiflorum Lam., herbicidal effect grade” value ([5]; 320 g/ha) was 5 (Herbicidal ratio of 90% or more (almost completely withered)) and the “O: Chenopodium album, herbicidal effect grade” value ([6]; 320 g/ha) was 0 (Herbicidal ratio of 5% or lower (almost no effect)). The “b: directly sowed rice plant, effect grade on crop” value ([7]; 320 g/ha) was 0 (Herbicidal ratio of 5% or lower (almost no effect)), the “f: beet, effect grade on crop” value ([8]; 320 g/ha) was 0 (Herbicidal ratio of 5% or lower (almost no effect)) and the “G: Setaria viridis, herbicidal effect (criteria 0-5)” value [9] was 4 (Herbicidal ratio of 70% or higher and lower than 90%). The “J: Alopecurus myosuroides, herbicidal effect (criteria 0-5)” value [10] was 5 (Herbicidal ratio of 90% or more (almost completely withered)), the “M: Abutilon theophrasti, herbicidal effect (criteria 0-5)” value [11] was 3 (Herbicidal ratio of 40% or higher and lower than 70%) and the “O: Chenopodium album, herbicidal effect (criteria 0-5)” value [12] was 0 (Herbicidal ratio of 5% or lower (almost no effect)). For the same compound, the “P: Stellaria media, herbicidal effect (criteria 0-5)” value [13] was 0 (Herbicidal ratio of 5% or lower (almost no effect)), the “Q: Galium spurium, herbicidal effect (criteria 0-5)” value [14] was 0 (Herbicidal ratio of 5% or lower (almost no effect)) and the “R: Veronica persica, herbicidal effect (criteria 0-5)” value [15] was 0 (Herbicidal ratio of 5% or lower (almost no effect)). The “d: soybean, effect on crop (criteria 0-5)” value [16] was 0 (Herbicidal ratio of 5% or lower (almost no effect)) and the “b: directly sowed rice plant, effect on crop (criteria 0-5)” value [17] was 5 (Herbicidal ratio of 90% or more (almost completely withered)).

With `Cc1cc(C)c(C2=C(O)CC(CC(=O)C(C)(C)C)C2=O)c(C)c1` (centres unmarked) [2-022] the “Herbicidal effect grade, B” value [1] was 0 (Herbicidal ratio of 5% or lower (almost no effect)), the “herbicidal effect on D” value [2] was 4 (Herbicidal ratio of 70% or higher and lower than 90%) and the “herbicidal effect on E, grade 0-5” value [18] was 2 (Herbicidal ratio of 20% or higher and lower than 40%). For the same compound, the “F: Digitaria ciliaris” value [3, 20] was 0 (Herbicidal ratio of 5% or lower (almost no effect)), the “H: Echinochloa crus-galli var. crus-galli, herbicidal effect grade” value [4, 20] was 0 (Herbicidal ratio of 5% or lower (almost no effect)) and the “K: Lolium multiflorum Lam., herbicidal effect grade” value [5, 20] was 4 (Herbicidal ratio of 70% or higher and lower than 90%). For the same compound, the “N: Amaranthus retroflexus, herbicidal effect grade” value (“N: Amaranthus retroflexus” for short) [19] was 0 (Herbicidal ratio of 5% or lower (almost no effect)), the “O: Chenopodium album, herbicidal effect grade” value [6, 20] was 0 (Herbicidal ratio of 5% or lower (almost no effect)) and the “b: directly sowed rice plant, effect on crop grade” value [7] was 4 (Herbicidal ratio of 70% or higher and lower than 90%). The “f: beet, effect on crop grade” value [8] was 0 (Herbicidal ratio of 5% or lower (almost no effect)), the “G: Setaria viridis, herbicidal effect grade” value [9] was 0 (Herbicidal ratio of 5% or lower (almost no effect)) and the “J: Alopecurus myosuroides, herbicidal effect grade” value [10] was 3 (Herbicidal ratio of 40% or higher and lower than 70%). For the same compound, the “M: Abutilon theophrasti, herbicidal effect grade” value [11] was 0 (Herbicidal ratio of 5% or lower (almost no effect)), the “O: Chenopodium album, herbicidal effect grade” value [12] was 0 (Herbicidal ratio of 5% or lower (almost no effect)) and the “P: Stellaria media, herbicidal effect grade” value [13] was 0 (Herbicidal ratio of 5% or lower (almost no effect)). The “R: Veronica persica, herbicidal effect grade” value [15] was 0 (Herbicidal ratio of 5% or lower (almost no effect)), the “d: soybean, effect on crop grade” value [16] was 0 (Herbicidal ratio of 5% or lower (almost no effect)) and the “b: directly sowed rice plant, effect on crop grade” value [17] was 5 (Herbicidal ratio of 90% or more (almost completely withered)).

In the case of `CCC(C)C(=O)CC1CC(O)=C(c2c(C)cc(C)cc2C)C1=O` (centres unmarked) [2-024], the “Herbicidal effect grade, B” value [1] is reported as 0 (Herbicidal ratio of 5% or lower (almost no effect)), the “herbicidal effect on D” value [2] is reported as 3 (Herbicidal ratio of 40% or higher and lower than 70%) and the “herbicidal effect on E, grade 0-5” value [18] is reported as 0 (Herbicidal ratio of 5% or lower (almost no effect)). The “F: Digitaria ciliaris” value [3, 20] was 5 (Herbicidal ratio of 90% or more (almost completely withered)), the “H: Echinochloa crus-galli var. crus-galli, herbicidal effect grade” value [4, 20] was 4 (Herbicidal ratio of 70% or higher and lower than 90%) and the “K: Lolium multiflorum Lam., herbicidal effect grade” value [5, 20] was 0 (Herbicidal ratio of 5% or lower (almost no effect)). The “N: Amaranthus retroflexus” value [19] was 0 (Herbicidal ratio of 5% or lower (almost no effect)), the “O: Chenopodium album, herbicidal effect grade” value [6, 20] was 0 (Herbicidal ratio of 5% or lower (almost no effect)) and the “b: directly sowed rice plant, effect on crop grade” value [7] was 5 (Herbicidal ratio of 90% or more (almost completely withered)). The “f: beet, effect on crop grade” value [8] was 0 (Herbicidal ratio of 5% or lower (almost no effect)), the “G: Setaria viridis, herbicidal effect grade” value [9] was 5 (Herbicidal ratio of 90% or more (almost completely withered)) and the “J: Alopecurus myosuroides, herbicidal effect grade” value [10] was 4 (Herbicidal ratio of 70% or higher and lower than 90%). For the same compound, the “M: Abutilon theophrasti, herbicidal effect grade” value [11] was 0 (Herbicidal ratio of 5% or lower (almost no effect)), the “O: Chenopodium album, herbicidal effect grade” value [12] was 0 (Herbicidal ratio of 5% or lower (almost no effect)) and the “P: Stellaria media, herbicidal effect grade” value [13] was 0 (Herbicidal ratio of 5% or lower (almost no effect)). For the same compound, the “R: Veronica persica, herbicidal effect grade” value [15] was 2 (Herbicidal ratio of 20% or higher and lower than 40%), the “d: soybean, effect on crop grade” value [16] was 0 (Herbicidal ratio of 5% or lower (almost no effect)) and the “b: directly sowed rice plant, effect on crop grade” value [17] was 5 (Herbicidal ratio of 90% or more (almost completely withered)).

With `CON=C(C)CC1CC(O)=C(c2c(C)cc(C)cc2OC)C1=O` (centres unmarked) [6-037, 3-hydroxy-2-(2-methoxy-4,6-dimethylphenyl)-5-{2-(methoxyimino)propyl}cyclopent-2-enone] the “Herbicidal effect grade, B” value [1] was 5 (Herbicidal ratio of 90% or more (almost completely withered)), the “herbicidal effect on D” value [2] was 5 (Herbicidal ratio of 90% or more (almost completely withered)) and the “herbicidal effect on E, grade 0-5” value [18] was 5 (Herbicidal ratio of 90% or more (almost completely withered)). For the same compound, the “F: Digitaria ciliaris” value [3, 20] was 5 (Herbicidal ratio of 90% or more (almost completely withered)), the “H: Echinochloa crus-galli var. crus-galli, herbicidal effect grade” value [4, 20] was 5 (Herbicidal ratio of 90% or more (almost completely withered)) and the “K: Lolium multiflorum Lam., herbicidal effect grade” value [5, 20] was 5 (Herbicidal ratio of 90% or more (almost completely withered)). For the same compound, the “N: Amaranthus retroflexus” value [19] was 3 (Herbicidal ratio of 40% or higher and lower than 70%), the “O: Chenopodium album, herbicidal effect grade” value [6, 20] was 0 (Herbicidal ratio of 5% or lower (almost no effect)) and the “b: directly sowed rice plant, effect on crop grade” value [7] was 5 (Herbicidal ratio of 90% or more (almost completely withered)). For the same compound, the “f: beet, effect on crop grade” value [8] was 0 (Herbicidal ratio of 5% or lower (almost no effect)), the “G: Setaria viridis, herbicidal effect grade” value [9] was 5 (Herbicidal ratio of 90% or more (almost completely withered)) and the “J: Alopecurus myosuroides, herbicidal effect grade” value [10] was 5 (Herbicidal ratio of 90% or more (almost completely withered)). The “M: Abutilon theophrasti, herbicidal effect grade” value [11] was 5 (Herbicidal ratio of 90% or more (almost completely withered)), the “O: Chenopodium album, herbicidal effect grade” value [12] was 3 (Herbicidal ratio of 40% or higher and lower than 70%) and the “P: Stellaria media, herbicidal effect grade” value [13] was 4 (Herbicidal ratio of 70% or higher and lower than 90%). For the same compound, the “R: Veronica persica, herbicidal effect grade” value [15] was 3 (Herbicidal ratio of 40% or higher and lower than 70%), the “d: soybean, effect on crop grade” value [16] was 4 (Herbicidal ratio of 70% or higher and lower than 90%) and the “b: directly sowed rice plant, effect on crop grade” value [17] was 5 (Herbicidal ratio of 90% or more (almost completely withered)).
